# Experimental data from PMC10882719 (Frontiers in Neuroscience, 2024).
# Read-outs that look alike come from different tables or passages of the source.
# Key:
# Format in all cases: cell-based
# 168 GPCRs [1] = molecular target: T1, 168 GPCRs (Homo sapiens, UniProt O95838); details: GLP2R
# T1 construct: host or cells: PathHunter cell lines
# T1 sequence (O95838 1-553): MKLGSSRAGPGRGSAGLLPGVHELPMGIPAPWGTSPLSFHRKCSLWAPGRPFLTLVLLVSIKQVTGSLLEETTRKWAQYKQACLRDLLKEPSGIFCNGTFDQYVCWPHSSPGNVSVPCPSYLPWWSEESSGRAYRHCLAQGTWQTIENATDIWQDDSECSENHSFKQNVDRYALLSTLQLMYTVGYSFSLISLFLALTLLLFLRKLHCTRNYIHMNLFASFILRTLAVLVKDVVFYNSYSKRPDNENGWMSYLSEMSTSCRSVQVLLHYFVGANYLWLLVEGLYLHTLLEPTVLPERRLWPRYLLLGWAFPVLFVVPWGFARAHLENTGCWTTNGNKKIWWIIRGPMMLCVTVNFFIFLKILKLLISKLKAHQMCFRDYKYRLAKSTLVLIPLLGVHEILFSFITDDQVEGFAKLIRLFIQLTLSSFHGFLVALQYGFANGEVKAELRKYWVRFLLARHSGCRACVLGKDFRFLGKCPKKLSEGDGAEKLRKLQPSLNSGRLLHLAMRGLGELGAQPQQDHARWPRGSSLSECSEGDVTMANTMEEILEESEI
# 168 GPCRs [2] = molecular target: T2, 168 GPCRs (Homo sapiens, UniProt P28222); details: HTR1B
# T2 construct: host or cells: PathHunter cell lines
# 168 GPCRs [3] = molecular target: T3, 168 GPCRs (Homo sapiens, UniProt P34998)
# T3 construct: host or cells: PathHunter cell lines
# T3 sequence (P34998 24-415): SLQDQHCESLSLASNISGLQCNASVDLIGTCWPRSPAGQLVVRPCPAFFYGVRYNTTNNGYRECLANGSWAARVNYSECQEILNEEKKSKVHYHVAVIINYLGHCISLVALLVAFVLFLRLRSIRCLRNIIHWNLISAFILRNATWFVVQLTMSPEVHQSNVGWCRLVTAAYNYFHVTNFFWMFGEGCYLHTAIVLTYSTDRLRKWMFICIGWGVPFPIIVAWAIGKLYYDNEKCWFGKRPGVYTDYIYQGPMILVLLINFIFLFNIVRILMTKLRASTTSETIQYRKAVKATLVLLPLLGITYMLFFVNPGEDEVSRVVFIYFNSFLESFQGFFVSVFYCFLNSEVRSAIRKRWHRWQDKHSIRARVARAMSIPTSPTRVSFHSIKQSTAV
# 168 GPCRs [4] = molecular target: T4, 168 GPCRs (Homo sapiens, UniProt P37288); details: AVPR1a
# T4 construct: host or cells: PathHunter cell lines
# 168 GPCRs [5] = molecular target: T5, 168 GPCRs (Homo sapiens, UniProt P46091)
# T5 construct: host or cells: PathHunter cell lines
# T5 sequence (P46091 1-355): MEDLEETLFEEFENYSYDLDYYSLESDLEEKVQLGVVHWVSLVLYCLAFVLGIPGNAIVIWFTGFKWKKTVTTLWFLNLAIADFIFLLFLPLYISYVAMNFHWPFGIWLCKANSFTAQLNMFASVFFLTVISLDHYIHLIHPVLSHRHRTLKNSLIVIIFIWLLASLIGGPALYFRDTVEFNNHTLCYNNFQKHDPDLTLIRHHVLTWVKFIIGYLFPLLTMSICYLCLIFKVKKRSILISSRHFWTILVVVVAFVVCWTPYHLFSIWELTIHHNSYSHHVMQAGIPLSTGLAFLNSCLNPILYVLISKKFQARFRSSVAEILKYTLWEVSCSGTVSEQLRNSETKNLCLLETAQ
# 168 GPCRs [6] = molecular target: T6, 168 GPCRs (Homo sapiens, UniProt Q99500)
# T6 construct: host or cells: PathHunter cell lines
# 168 GPCRs [7] = molecular target: T7, 168 GPCRs (Homo sapiens, UniProt Q99788)
# T7 construct: host or cells: PathHunter cell lines
# T7 sequence (Q99788 1-373): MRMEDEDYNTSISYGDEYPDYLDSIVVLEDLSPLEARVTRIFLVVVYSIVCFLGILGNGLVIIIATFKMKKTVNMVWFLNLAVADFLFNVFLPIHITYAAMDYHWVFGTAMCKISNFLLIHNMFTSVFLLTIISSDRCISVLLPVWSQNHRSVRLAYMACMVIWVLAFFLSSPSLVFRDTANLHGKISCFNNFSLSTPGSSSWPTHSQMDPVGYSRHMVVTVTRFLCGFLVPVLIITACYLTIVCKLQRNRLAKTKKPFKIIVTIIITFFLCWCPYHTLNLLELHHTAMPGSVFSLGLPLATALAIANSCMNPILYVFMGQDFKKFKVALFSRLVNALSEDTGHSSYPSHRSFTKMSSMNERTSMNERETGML
# T2 sequence (P28222 whole entry): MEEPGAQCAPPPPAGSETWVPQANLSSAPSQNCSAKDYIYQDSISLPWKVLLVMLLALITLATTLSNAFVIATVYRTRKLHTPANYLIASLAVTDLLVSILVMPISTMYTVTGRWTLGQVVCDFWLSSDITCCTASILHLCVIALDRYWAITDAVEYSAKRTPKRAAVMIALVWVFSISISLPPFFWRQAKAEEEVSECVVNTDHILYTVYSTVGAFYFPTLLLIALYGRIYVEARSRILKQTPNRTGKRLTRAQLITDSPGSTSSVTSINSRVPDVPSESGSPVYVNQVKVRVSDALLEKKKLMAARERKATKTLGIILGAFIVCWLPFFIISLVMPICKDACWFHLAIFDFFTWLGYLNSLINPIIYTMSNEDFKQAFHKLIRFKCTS
# T4 sequence (P37288 whole entry): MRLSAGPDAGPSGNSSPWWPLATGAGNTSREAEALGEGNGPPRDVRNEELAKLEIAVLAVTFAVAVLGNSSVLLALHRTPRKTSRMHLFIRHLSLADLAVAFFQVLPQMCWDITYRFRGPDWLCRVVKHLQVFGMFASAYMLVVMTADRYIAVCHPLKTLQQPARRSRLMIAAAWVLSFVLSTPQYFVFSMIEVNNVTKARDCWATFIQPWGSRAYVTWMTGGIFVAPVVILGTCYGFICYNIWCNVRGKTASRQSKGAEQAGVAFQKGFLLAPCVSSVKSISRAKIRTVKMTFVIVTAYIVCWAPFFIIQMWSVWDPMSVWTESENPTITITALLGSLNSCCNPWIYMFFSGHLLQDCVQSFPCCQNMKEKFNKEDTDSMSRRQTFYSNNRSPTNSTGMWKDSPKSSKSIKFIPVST
# T6 sequence (Q99500 whole entry): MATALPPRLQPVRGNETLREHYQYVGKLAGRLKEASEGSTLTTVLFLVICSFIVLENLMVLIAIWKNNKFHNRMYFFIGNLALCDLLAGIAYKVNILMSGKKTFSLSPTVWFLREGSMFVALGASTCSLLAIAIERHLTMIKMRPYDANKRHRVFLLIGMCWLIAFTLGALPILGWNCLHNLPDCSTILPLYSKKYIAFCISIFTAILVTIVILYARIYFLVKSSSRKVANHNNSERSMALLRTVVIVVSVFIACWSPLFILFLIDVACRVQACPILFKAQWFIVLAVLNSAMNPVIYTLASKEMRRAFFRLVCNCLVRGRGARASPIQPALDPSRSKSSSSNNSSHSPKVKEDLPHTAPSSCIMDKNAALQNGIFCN
SMILES,% Agonist Activity (168 GPCRs [1]; 1 uM) [%],% Antagonist Activity (168 GPCRs [1]; 1 uM) [%],% Agonist Activity (168 GPCRs [1]; 10 uM) [%],% Antagonist Activity (168 GPCRs [1]; 10 uM) [%],% Agonist Activity (168 GPCRs [2]; 1 uM) [%],% Antagonist Activity (168 GPCRs [2]; 1 uM) [%],% Agonist Activity (168 GPCRs [2]; 10 uM) [%],% Antagonist Activity (168 GPCRs [2]; 10 uM) [%],"% Agonist Activity (168 GPCRs [3]; CRHR1, 1 uM) [%]","% Antagonist Activity (168 GPCRs [3]; CRHR1, 1 uM) [%]","% Agonist Activity (168 GPCRs [3]; CRHR1, 10 uM) [%]","% Antagonist Activity (168 GPCRs [3]; CRHR1, 10 uM) [%]",% Agonist Activity (168 GPCRs [4]; 1 uM) [%],% Antagonist Activity (168 GPCRs [4]; 1 uM) [%],% Agonist Activity (168 GPCRs [4]; 10 uM) [%],% Antagonist Activity (168 GPCRs [4]; 10 uM) [%],"% Agonist Activity (168 GPCRs [5]; GPR1, 1 uM) [%]","% Antagonist Activity (168 GPCRs [5]; GPR1, 1 uM) [%]","% Agonist Activity (168 GPCRs [5]; GPR1, 10 uM) [%]","% Antagonist Activity (168 GPCRs [5]; GPR1, 10 uM) [%]",further results
CNC(C)C(=O)c1ccc2c(c1)OCO2 (centres unmarked) [methylone],-1.5,5.4,-1,5.4,3.3,-9.5,6.7,-6.2,1.4,1.3,1.1,0.6,-0.6,-3,-0.5,2.8,-0.5,4.4,-0.7,7.4,"% Agonist Activity (168 GPCRs [6]; EDG3, 1 uM): -9.4%; % Antagonist Activity (168 GPCRs [6]; EDG3, 1 uM): 25.8%; % Agonist Activity (168 GPCRs [6]; EDG3, 10 uM): -8.6%; % Antagonist Activity (168 GPCRs [6]; EDG3, 10 uM): 13.6%; % Agonist Activity (168 GPCRs [7]; CMKLR1, 1 uM): -0.2%; % Antagonist Activity (168 GPCRs [7]; CMKLR1, 1 uM): -0.2%; % Agonist Activity (168 GPCRs [7]; CMKLR1, 10 uM): -0.3%; % Antagonist Activity (168 GPCRs [7]; CMKLR1, 10 uM): -5.6%"
"CNC(C)Cc1ccc2c(c1)OCO2 (centres unmarked) [MDMA, 3,4-Methylenedioxy methamphetamine, reference compound]",0,3.4,-5,1.1,8.5,-7.3,10.4,-0.1,0.7,-1.7,0.2,0.2,-0.2,-3.6,-0.4,4.5,0.7,7.6,0.2,11.9,"% Agonist Activity (168 GPCRs [6]; EDG3, 1 uM): -1.7%; % Antagonist Activity (168 GPCRs [6]; EDG3, 1 uM): 8.8%; % Agonist Activity (168 GPCRs [6]; EDG3, 10 uM): -1.1%; % Antagonist Activity (168 GPCRs [6]; EDG3, 10 uM): 11%; % Agonist Activity (168 GPCRs [7]; CMKLR1, 1 uM): -0.3%; % Antagonist Activity (168 GPCRs [7]; CMKLR1, 1 uM): 0.4%; % Agonist Activity (168 GPCRs [7]; CMKLR1, 10 uM): -0.4%; % Antagonist Activity (168 GPCRs [7]; CMKLR1, 10 uM): 1.1%"
